# Test results published in patent US20230053540A1, “TREATMENT OF LIVER INJURY” (Massachusetts Institute of Technology, priority 2019, published 2023).
# Test system: hepatocytes
# Test: Seq-Well scRNA-Seq of hepatocytes after APAP overdose (signature scores, DEG vs untreated)
# Assay type: in vivo, mouse
# Conditions: A6 vs UT
smiles,measurement,value
"CC(=O)Nc1ccc(O)cc1 [APAP, acetaminophen]",Slc25a10 avg_logFC,−0.2828
same,Slc25a10 pct.1,0.351
same,Slc25a47 avg_logFC,0.4289
same,Slc25a51 A6logFC,0.264
same,Slc25a51 avg_logFC,0.264
same,Slc25a51 pct.1,0.308
same,Slc26a1 A6logFC,−0.2817
same,Slc26a1 avg_logFC,−0.2817
same,Slc26a1 pct.1,0.329
same,Slc30a1 A6logFC,0.2506
same,Slc30a1 avg_logFC,0.2506
same,Slc30a1 pct.1,0.346
same,Slc35d1 A6logFC,0.3094
same,Slc35d1 avg_logFC,0.3094
same,Slc35d1 pct.1,0.489
same,Slc38a3 avg_logFC,−0.4098
same,Slc38a3 pct.1,0.663
same,Slc39a14 avg_logFC,1.013
same,Slc40a1 avg_logFC,0.467
same,Slc40a1 pct.1,0.456
same,Slirp A6logFC,−0.3085
same,Smoc1 A6logFC,0.2616
same,Smoc1 avg_logFC,0.2616
same,Smoc1 pct.1,0.368
same,Snx10 A6logFC,0.2856
same,Snx10 avg_logFC,0.2856
same,Snx10 pct.1,0.341
same,Sod1 avg_logFC,−0.4393
same,Son avg_logFC,0.5429
same,Son pct.1,0.601
same,Sord avg_logFC,−0.3836
same,Sord pct.1,0.754
same,Spag9 A6logFC,0.3188
same,Spag9 avg_logFC,0.3188
same,Spag9 pct.1,0.415
same,Spcs1 A6logFC,−0.2629
same,Spcs1 avg_logFC,−0.2629
same,Spcs1 pct.1,0.236
same,Spp2 avg_logFC,−0.3821
same,Spp2 pct.1,0.334
same,Spred1 avg_logFC,0.3884
same,Spred1 pct.1,0.308
same,Sptan1 A6logFC,0.3127
same,Sptan1 avg_logFC,0.3127
same,Sptan1 pct.1,0.348
same,Sptbn1 avg_logFC,0.4227
same,Sptbn1 pct.1,0.439
same,Sqstm1 avg_logFC,0.7432
same,Srd5a1 A6logFC,−0.2773
same,Srd5a1 avg_logFC,−0.2773
same,Srd5a1 pct.1,0.308
same,Srgn avg_logFC,0.9341
same,Srrm2 A6logFC,0.3282
same,Srrm2 avg_logFC,0.3282
same,Srrm2 pct.1,0.456
same,Srxn1 avg_logFC,1.878
same,Ssr4 avg_logFC,−0.5076
same,Ssr4 pct.1,0.413
same,St3gal1 avg_logFC,0.5287
same,St3gal4 A6logFC,0.275
same,St3gal4 avg_logFC,0.275
same,St3gal4 pct.1,0.368
same,St3gal5 avg_logFC,0.6076
same,Stard10 avg_logFC,−0.3383
same,Stard10 pct.1,0.876
same,Stat3 avg_logFC,0.7154
same,Stbd1 A6logFC,−0.2732
same,Steap4 avg_logFC,0.4372
same,Steap4 pct.1,0.37
same,Stk40 avg_logFC,0.5364
same,Suco A6logFC,0.251
same,Suco avg_logFC,0.251
same,Suco pct.1,0.26
same,Sult1a1 avg_logFC,0.319
same,Sult1a1 pct.1,0.685
same,Supt6 A6logFC,0.2913
same,Supt6 avg_logFC,0.2913
same,Supt6 pct.1,0.291
same,Swi5 A6logFC,−0.2621
same,Swi5 avg_logFC,−0.2621
same,Swi5 pct.1,0.341
same,Syncrip A6logFC,0.2748
same,Syncrip avg_logFC,0.2748
same,Syncrip pct.1,0.365
same,Tab2 A6logFC,0.3484
same,Tab2 avg_logFC,0.3484
same,Tab2 pct.1,0.425
same,Tacc2 avg_logFC,0.3293
same,Tacc2 pct.1,0.289
same,Tars avg_logFC,0.4921
same,Tars pct.1,0.666
same,Tatdn2 avg_logFC,0.3733
same,Tatdn2 pct.1,0.334
same,Tbc1d15 avg_logFC,0.4886
same,Tbc1d15 pct.1,0.461
same,Tbca A6logFC,−0.2726
same,Tbca avg_logFC,−0.2726
same,Tbca pct.1,0.284
same,Tcerg1 avg_logFC,0.3575
same,Tcerg1 pct.1,0.305
same,Tfpi2 avg_logFC,−0.3663
same,Tfpi2 pct.1,0.155
same,Timm13 avg_logFC,−0.433
same,Timm13 pct.1,0.418
same,Tiparp avg_logFC,0.5456
same,Tjp2 avg_logFC,0.4115
same,Tjp2 pct.1,0.332
same,Tln1 A6logFC,0.321
same,Tln1 avg_logFC,0.321
same,Tln1 pct.1,0.31
same,Tm4sf4 avg_logFC,0.5126
same,Tm4sf4 pct.1,0.484
same,Tmed5 avg_logFC,0.4016
same,Tmed5 pct.1,0.594
same,Tmem14c avg_logFC,−0.3685
same,Tmem14c pct.1,0.332
same,Tmem37 A6logFC,−0.2822
same,Tmem86b A6logFC,−0.2582
same,Tmem87b avg_logFC,0.4344
same,Tmem87b pct.1,0.351
same,Tmem147 A6logFC,0.2838
same,Tmem150a A6logFC,−0.2535
same,Tmem160 A6logFC,−0.339
same,Tmem205 avg_logFC,−0.7747
same,Tmem242 A6logFC,−0.2725
same,Tmem256 avg_logFC,−0.5185
same,Tmem256 pct.1,0.375
same,Tmem258 A6logFC,−0.2769
same,Tmprss6 A6logFC,−0.2802
same,Tmprss6 avg_logFC,−0.2802
same,Tmprss6 pct.1,0.551
same,Tmsb4x avg_logFC,0.7806
same,Tnfrsf1a avg_logFC,0.5996
same,Tnfrsf12a avg_logFC,1.118
same,Tnks2 A6logFC,0.3176
same,Tns1 avg_logFC,0.4349
same,Tns1 pct.1,0.403
same,Tpi1 A6logFC,−0.2616
same,Tpi1 avg_logFC,−0.2616
same,Tpi1 pct.1,0.539
same,Tpr A6logFC,0.4409
same,Tra2a avg_logFC,0.7123
same,Trf avg_logFC,−0.2619
same,Trf pct.1,0.988
same,Trib1 avg_logFC,0.3317
same,Trib1 pct.1,0.411
same,Trip11 A6logFC,0.3479
same,Trip11 avg_logFC,0.3479
same,Trip11 pct.1,0.341
same,Trp53inp1 avg_logFC,1.008
same,Tsc22d1 A6logFC,−0.2997
same,Tsc22d2 avg_logFC,0.3911
same,Tsc22d2 pct.1,0.353
same,Tsku avg_logFC,0.3676
same,Tsku pct.1,0.327
same,Tspan31 A6logFC,−0.2959
same,Tspan31 avg_logFC,−0.2959
same,Tspan31 pct.1,0.415
same,Tspo A6logFC,−0.3157
same,Tsr1 avg_logFC,0.3603
same,Tsr1 pct.1,0.341
same,Ttc36 avg_logFC,−0.6606
same,Ttr avg_logFC,−0.5306
same,Tubb2a avg_logFC,0.7494
same,Tubb6 avg_logFC,0.5767
same,Tyrobp avg_logFC,0.4666
same,Ubb A6logFC,−0.275
same,Ubc avg_logFC,−0.6618
same,Ubr4 A6logFC,0.3301
same,Ubr4 avg_logFC,0.3301
same,Ubr4 pct.1,0.411
same,Ubr5 A6logFC,0.3057
same,Ubr5 avg_logFC,0.3057
same,Ubr5 pct.1,0.399
same,Ugdh avg_logFC,0.6331
same,Ugt2b5 avg_logFC,−0.6034
same,Ugt2b36 avg_logFC,−0.5834
same,Ugt3a2 A6logFC,−0.2586
same,Ugt3a2 avg_logFC,−0.2586
same,Ugt3a2 pct.1,0.492
same,Uhrf1bp1l avg_logFC,0.4198
same,Uhrf1bp1l pct.1,0.399
same,Uox avg_logFC,−0.5531
same,Upp2 avg_logFC,−0.6903
same,Uqcr10 avg_logFC,−0.4519
same,Uqcr10 pct.1,0.561
same,Uqcr11 avg_logFC,−0.6031
same,Uqcrb avg_logFC,−0.4084
same,Uqcrb pct.1,0.425
same,Uqcrh avg_logFC,−0.4292
same,Uqcrh pct.1,0.589
same,Urah avg_logFC,−0.7641
same,Usp4 avg_logFC,0.28
same,Usp4 pct.1,0.439
same,Usp7 A6logFC,0.2873
same,Usp7 avg_logFC,0.2873
same,Usp7 pct.1,0.363
same,Usp9x avg_logFC,0.3184
same,Usp9x pct.1,0.451
same,Usp34 A6logFC,0.2859
same,Usp34 avg_logFC,0.2859
same,Usp34 pct.1,0.37
